Measurements reported in ChEMBL document CHEMBL1150448, “Dihydropyridines: a new class of angiotensin II antagonists” (Bioorg Med Chem Lett, 1994).
Blank lines part the entries; values can stand above or below the molecule they belong to.

Assays:
[1] = biological target: T1, Angiotensin II receptor (AT-1) type-1 (Rattus norvegicus, UniProt P29089+P25095); assay: Binding affinity to Angiotensin II receptor, type 1 as displacement of 125I-Sar, Ile-AII from rat adrenal cortex membranes; format: cell membranes, Membrane
T1 sequence (P29089 whole entry): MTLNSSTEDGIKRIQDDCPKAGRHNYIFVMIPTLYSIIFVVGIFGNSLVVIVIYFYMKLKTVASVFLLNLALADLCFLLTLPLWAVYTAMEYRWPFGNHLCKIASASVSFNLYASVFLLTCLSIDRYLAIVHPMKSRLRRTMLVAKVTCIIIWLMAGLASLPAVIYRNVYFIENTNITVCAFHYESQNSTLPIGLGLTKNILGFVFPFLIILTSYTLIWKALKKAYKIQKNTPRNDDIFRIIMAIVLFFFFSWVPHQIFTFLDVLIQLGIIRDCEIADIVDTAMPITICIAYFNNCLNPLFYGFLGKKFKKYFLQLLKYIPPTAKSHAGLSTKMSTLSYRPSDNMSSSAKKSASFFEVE
T1 sequence (P25095 whole entry): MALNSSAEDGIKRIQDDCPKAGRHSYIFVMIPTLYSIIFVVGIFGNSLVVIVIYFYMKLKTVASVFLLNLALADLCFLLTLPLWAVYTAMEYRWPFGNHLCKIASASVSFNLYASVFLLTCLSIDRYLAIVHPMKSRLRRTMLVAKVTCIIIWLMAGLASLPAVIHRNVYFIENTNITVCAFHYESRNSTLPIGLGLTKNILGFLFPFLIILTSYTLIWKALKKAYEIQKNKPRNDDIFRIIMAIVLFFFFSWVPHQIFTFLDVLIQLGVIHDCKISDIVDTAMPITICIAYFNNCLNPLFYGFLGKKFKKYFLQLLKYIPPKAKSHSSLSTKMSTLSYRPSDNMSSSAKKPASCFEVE

[2] = Compound was evaluated for inhibitory activity against PAF (platelet activating factor) induced platelet aggregation; format: functional
[3] = Calcium channel blocking activity (CCB); format: functional
[4] = system: Rattus norvegicus; assay: Dose required to produce 30 […] decrease in blood pressure that lasted for >6 hr.; format: functional

SMILES: CCCCc1nc2cccnc2n1-c1ccc(CCO/C(O)=C2\C(C(C)C)=NC(C)=C(C(=O)Nc3cccnc3)C2c2ccccc2Cl)cc1 (stereo in doubt)
IC50 [1]: 600 nM | IC50 [2]: 30 nM | IC50 [3]: > 100000 nM

SMILES: CCCCc1nc2cccnc2n1-c1ccc(CCO/C(O)=C2\C(C(C)C)=NC(C)=C(C(=O)Nc3cccnc3)C2c2ccccc2Cl)cc1 (single isomer, unassigned; (-))
IC50 [1]: 130 nM | Dose [4]: 60 mg/kg

SMILES: CCCCc1nc2cccnc2n1-c1ccc(CCO/C(O)=C2\C(C(C)C)=NC(C)=C(C(=O)Nc3ccccn3)C2c2ccccc2Cl)cc1 (stereo unspecified)
IC50 [1]: 120 nM | IC50 [2]: > 100000 nM | IC50 [3]: > 100000 nM

SMILES: CCCCc1nc2cccnc2n1-c1ccc(CCO/C(O)=C2\C(C(C)C)=NC(C)=C(C(=O)Nc3cccnc3)C2c2ccccc2Cl)cc1 (stereo in doubt; 12)
IC50 [1]: 140 nM

SMILES: CCCCc1nc2cccnc2n1-c1ccc(CCO/C(O)=C2\C(C)=NC(C)=C(C(=O)Nc3ccccn3)C2c2ccccc2Cl)cc1 (stereo unspecified)
IC50 [1]: 60 nM | IC50 [2]: > 100000 nM | IC50 [3]: 360 nM

Continued, values first:

IC50 [1]: 2000 nM
SMILES: CCCCc1nc2cccnc2n1CCCCCCCO/C(O)=C1\C(C(C)C)=NC(C)=C(C(=O)Nc2cccnc2)C1c1ccccc1Cl (stereo unspecified)

IC50 [1]: 200 nM
SMILES: CCCCc1nc2cccnc2n1CCCCCO/C(O)=C1\C(C(C)C)=NC(C)=C(C(=O)Nc2cccnc2)C1c1ccccc1Cl (stereo unspecified)

IC50 [1]: 5300 nM
SMILES: CCCCc1nc2cccnc2n1-c1ccc(CCO/C(O)=C2\C(C(C)C)=NC(C)=C(C(=O)Nc3cccnc3)C2c2ccccc2Cl)cc1 (single isomer, unassigned; (+))

IC50 [1]: 100 nM
SMILES: CCCCc1nc2cccnc2n1CCCCCCO/C(O)=C1\C(C(C)C)=NC(C)=C(C(=O)Nc2cccnc2)C1c1ccccc1Cl (stereo unspecified)
